Assay results: patent publication US9289503B2, “Fatty acid fumarate derivatives and their uses” (Catabasis Pharmaceuticals, Inc., priority 2010, dated 2016)
Where a name gives a salt, the structure may show the parent alone.

Experiments:
Assay type in all cases: cell-based
NF-κB = NF-κB luciferase reporter assay in RAW 264.7 macrophages; conditions: RAW 264.7 cells with 3× NFκB response element luciferase reporter, 2 hour pretreatment, 200 ng/ml LPS for 3 hours; for IC50: Mus musculus, RAW264.7, read-out: NF-kB inhibitory activity
Protocol: RAW 264.7 cells stably expressing a 3× NFκB response elemement-drive luciferase reporter were seeded into 96 well plates in sera-free medium (Optimem) 18 hours prior to compound application. Compounds of the invention were prepared by first making […] stock solutions in EtOH. Stock solutions were then diluted 1:100 in low LPS FBS (Gemini BenchMark 100-106), mixed vigorously and allowed to incubate at room temperature for 30 minutes, 1:2 serial dilutions were then made in FBS supplemented with 1% EtOH, mixed vigorously, and again allowed to incubate at room temperature for 30 minutes before adding to RAW 264.7 reporter cells (final concentrations: 10% FBS, 100 uM highest compound dilution, 0.1% EtOH) for a 2 hour pretreatment prior to stimulation with LPS. Cells were then stimulated with 200 ng/ml LPS or vehicle control for 3 hours in the presence of the compounds of the invention. A set of six vehicles was left unstimulated with LPS in order to measure the assay floor. AlamarBlue viability dye (Invitrogen) was added to cells simultaneously with the delivery of LPS (final AlamarBlue concentration of 10%). After the 3 h incubation period with LPS, cell viability was measured by reading fluorescence (excitation 550 nm, emission 595 nm) with a Perkin Elmer Victor V plate reader. Then cell media was aspirated from each well. Luciferase signal was then developed by addition of the Britelite Plus reagent (Perkin Elmer). Luciferase activity was measured with the Perkin Elmer Victor V plate reader. NF-κB activity was expressed as a percent of the vehicle control wells (stimulated with LPS). Compounds were tested at 6 dose point titrations in triplicate to determine IC50 values.
Table 1 summarizes the IC50 values for a number of fatty acid fumarate conjugates in this NF-κB luciferase reporter assay. In this table, MMF=mono methyl fumarate.

Hmox1 = Hmox1 target gene expression in RAW264.7 macrophages; conditions: RAW264.7; 50 μM and 100 μM; FIG. 4
Protocol: RAW264.7 macrophages are seeded at a density of 100,000 cells/well in a 96-well plate in DMEM supplemented with 10% FBS and Penn/strep. 16 hours later, medium is aspirated and replaced with 90 μl/well of serum-free DMEM. A fatty acid fumarate conjugate, DHA and EPA are brought up in 100% EtOH to a concentration of 100 mM and then diluted 1:100 In 100% FBS for a 20× stock solution consisting of 1 mM compound and 1% EtOH. The fatty acid fumarate conjugate 20× stock solutions are diluted 1:2 in FBS supplemented with 1% EtOH for a 500 uM 10× stock solution, whereas equal volumes of the DHA and EPA 20× stock solutions are mixed to create a 10× stock solution containing 500 μm each of DHA and EPA. […] The compounds are allowed to pre-incubate for 2 hours before stimulation of 100 ng/ml LPS (10 μl of 1 μg/ml LPS is added to each well). Following 3 hours of LPS stimulation, cells are washed once in 1× PBS, aspirated dry, and flash frozen in liquid nitrogen. RNA is then isolated and converted to cDNA using the Cells to cDNA kit (Ambion) according to the manufacturer's protocol. Transcript levels are then measured using ABI Taqman primer/probe assay kits, normalized to GAPDH using the deltaCt method, and the data expressed relative to vehicle only control.

IL-1β = IL-1β gene expression in LPS-stimulated RAW264.7 macrophages; conditions: RAW264.7; 50 μM and 100 μM; FIG. 4
Protocol: RAW264.7 macrophages were seeded at a density of 100,000 cells/well in a 96-well plate in DMEM supplemented with 10% FBS and Penn/strep. 16 hours later, medium was aspirated and replaced with 90 μl/well of serum-free DMEM. A fatty acid fumarate conjugate, DHA and monomethyl-fumarate (MMF) were brought up in 100% EtOH to a concentration of 100 mM and then diluted 1:100 in 100% FBS for a stock solution consisting of 1 mM compound and 1% EtOH. these stock solutions were then diluted 1:10 in FBS supplemented with 1% EtOH to generate a 100 μM of a fatty acid fumarate conjugate and 100 μM each of DHA and MMF. 10 μl was then added to the RAW246.7 cells to generate final concentrations 10 μM of the fatty acid fumarate conjugate or 10 μM each DHA and MMF, along with vehicle only control. […] IL-1β and TNF-α transcript levels were then measured using Taqman primer/probe assay sets (Applied Biosystems), normalized to GAPDH using the deltaCt method, and the data expressed relative to vehicle only control. […]
RAW264.7 macrophages are seeded at a density of 100,000 cells/well in a 96-well plate in DMEM supplemented with 10% FBS and Penn/strep. […] Transcript levels are then measured using ABI Taqman primer/probe assay kits, normalized to GAPDH using the deltaCt method, and the data expressed relative to vehicle only control.

| NF-kB inhibitory activity (NF-κB) | IC50 (NF-κB) [µM] | SMILES | also measured |
| --- | --- | --- | --- |
| + + | – | CC/C=C\C/C=C\C/C=C\C/C=C\C/C=C\C/C=C\CCC(=O)NCCOCCNC(=O)/C=C/C(=O)OC [Compound I-3, (E)-methyl 4-(2-(2-(4Z,7Z,10Z,13Z,16Z,19Z)-docosa-4,7,10,13,16,19-hexaenamidoethoxy)ethylamino)-4-oxobut-2-enoate] | – |
| + + | – | CC/C=C\C/C=C\C/C=C\C/C=C\C/C=C\C/C=C\CCC(=O)NCCN(C)CCNC(=O)/C=C/C(=O)OC [Compound I-4, (E)-methyl 4-(2-((2-(4Z,7Z,10Z,13Z,16Z,19Z)-docosa-4,7,10,13,16,19-hexaenamidoethyl)(methyl)amino)ethylamino)-4-oxobut-2-enoate] | – |
| – | 50 to 200 | CC/C=C\C/C=C\C/C=C\C/C=C\C/C=C\C/C=C\CCC(=O)NCCSSCCNC(=O)/C=C/C(=O)OC [Compound I-5, (E)-methyl 4-(2-(2-(2-(4Z,7Z,10Z,13Z,16Z,19Z)-docosa-4,7,10,13,16,19-hexaenamidoethyl)disulfanyl)ethylamino)-4-oxobut-2-enoate] | – |
| + + | – | CC/C=C\C/C=C\C/C=C\C/C=C\C/C=C\C/C=C\CCC(=O)NCCCC[C@H](NC(=O)/C=C/C(=O)OC)C(=O)OC [Compound I-6, (S)-methyl 6-((4Z,7Z,10Z,13Z,16Z,19Z)-docosa-4,7,10,13,16,19-hexaneamido)-2-((E)-4-methoxy-4-oxobut-2-enamido)hexanoate] | – |
| + + | – | CC/C=C\C/C=C\C/C=C\C/C=C\C/C=C\C/C=C\CCC(=O)NCC(C)(C)NC(=O)/C=C/C(=O)OC [Compound I-22] | – |
| – | 50 to 200 | CC/C=C\C/C=C\C/C=C\C/C=C\C/C=C\C/C=C\CCC(=O)NCCN1C(=O)CC(SC[C@H](NC(=O)/C=C/C(=O)OC)C(=O)OC)C1=O (stereo partly drawn) [Compound I-39, (E)-methyl 4-((R)-3-(1-(2-(4Z,7Z,10Z,13Z,16Z,19Z)-docosa-4,7,10,13,16,19-hexaenamidoethyl)-2,5-dioxopyrrolidin-3-ylthio)-1-methoxy-1-oxopropan-2-ylamino)-4-oxobut-2-enoate] | – |
| + + | – | CC/C=C\C/C=C\C/C=C\C/C=C\C/C=C\C/C=C\CCC(=O)N1CCN(C(=O)/C=C/C(=O)OC)CC1 [Compound I-40, (E)-methyl 4-(4-(4Z,7Z,10Z,13Z,16Z,19Z)-docosa-4,7,10,13,16,19-hexaenoylpiperazin-1-yl)-4-oxobut-2-enoate] | – |
| – | 50 to 200 | CC/C=C\C/C=C\C/C=C\C/C=C\C/C=C\C/C=C\CCC(=O)N1C[C@@H](C)N(C(=O)/C=C/C(=O)OC)[C@@H](C)C1 [Compound I-41, (E)-methyl 4-((2R,6S)-4-((4Z,7Z,10Z,13Z,16Z,19Z)-docosa-4,7,10,13,16,19-hexaenoyl)-2,6-dimethylpiperazin-1-yl)-4-oxobut-2-enoate] | – |
| + + | – | CC/C=C\C/C=C\C/C=C\C/C=C\C/C=C\C/C=C\CCC(=O)NCCNC(=O)/C=C/C(=O)OC [Compound I-67] | – |
| – | ≥ 100 | CC/C=C\C/C=C\C/C=C\C/C=C\C/C=C\C/C=C\CCC(=O)NCCNC(=O)/C=C/C(=O)O [Compound I-102, (E)-4-(2-(4Z,7Z,10Z,13Z,16Z,19Z)-docosa-4,7,10,13,16,19-hexaenamidoethylamino)-4-oxobut-2-enoic acid] | – |
| – | ≥ 100 | CC/C=C\C/C=C\C/C=C\C/C=C\C/C=C\C/C=C\CCC(=O)N(C)CCN(C)C(=O)/C=C/C(=O)OC [Compound I-104, (E)-methyl 4-(methyl(2-((4Z,7Z,10Z,13Z,16Z,19Z)-N-methyldocosa-4,7,10,13,16,19-hexaenamido)ethyl)amino)-4-oxobut-2-enoate] | – |
| – | – | COC(=O)/C=C/C(=O)NCCNC(=O)CCCC[C@@H]1CCSS1 [Compound I-105, (R,E)-methyl 4-(2-(5-(1,2-dithiolan-3-yl)pentanamido)ethylamino)-4-oxobut-2-enoate] | effect on the target gene Hmox1 (Hmox1): positive effect; effect on IL-1β target gene expression (IL-1β): positive effect |
| – | ≥ 100 | COC(=O)/C=C/C(=O)O [MMF, mono methyl fumarate, reference compound] | – |

| SMILES | NF-kB inhibitory activity (NF-κB) | IC50 (NF-κB) [µM] | also measured |
| --- | --- | --- | --- |
| CC/C=C\C/C=C\C/C=C\C/C=C\C/C=C\CCCC(=O)NCCNC(=O)/C=C/C(=O)OC [Compound I-2, (E)-methyl 4-(2-(5Z,8Z,11Z,14Z,17Z) -eicosa-5,8,11,14,17-pentaenamidoethylamino)-4-oxobut-2-enoate] | + + | – | – |
| CC/C=C\C/C=C\C/C=C\C/C=C\C/C=C\C/C=C\CCC(=O)NCCNC(=O)/C=C/C(=O)OCC [Compound I-66, (E)-ethyl 4-(2-(4Z,7Z,10Z,13Z,16Z,19Z)-docosa-4,7,10,13,16,19-hexaenamidoethylamino)-4-oxobut-2-enoate] | – | 50 to 200 | – |
| CC/C=C\C/C=C\C/C=C\C/C=C\C/C=C\CCCC(=O)N[C@@H](CCCCNC(=O)/C=C/C(=O)OC)C(=O)O [Compound I-72, (S)-2-((5Z,8Z,11Z,14Z,17Z)-icosa-5,8,11,14,17-pentaenamido)-6-((E)-4-methoxy-4-oxobut-2-enamido)hexanoic acid] | – | 50 to 200 | – |
| CC/C=C\C/C=C\C/C=C\C/C=C\C/C=C\C/C=C\CCC(=O)NCCOC(=O)/C=C/C(=O)OC [Compound I-103, 2-(4Z,7Z,10Z,13Z,16Z,19Z)-docosa-4,7,10,13,16,19-hexaenamidoethyl methyl fumarate] | – | 50 to 200 | – |
